These results are taken from ChEMBL document CHEMBL5518246, “Discovery of Small Molecule Interleukin 17A Inhibitors with Novel Binding Mode and Stoichiometry: Optimization of DNA-Encoded Chemical Library Hits to In Vivo Active Compounds” (J Med Chem, 2024).

A short description of data set [1]: Metabolic stability in human liver microsomes assessed as unbound intrinsic clearance at 0.5 uM measured after 4 hrs. Format: ADME, Microsome. In general terms: Liver microsomes are a subcellular fraction often used to study metabolism.
Data set [2] in a line: Thermodynamic solubility of the compound at pH 7.4 measured after 48 hrs by UHPLC analysis. Type of data set: physicochemical. The settings on record: buffer, read-out: Therm_solubility.

≈ marks a conversion by molar mass, not a printed value.

Take `O=C(NC1(C(=O)NCc2cn3cccnc3n2)Cc2ccccc2C1)c1cc(Cl)c(Cl)[nH]1`: the CL free in data set [1] is 115 mL/min/kg.
For the molecule `O=C(N[C@@]1(C(=O)NCc2cn3cccnc3n2)CO[C@@H](c2ccccc2)C1)c1cc(Cl)c(Cl)[nH]1`, the CL free in data set [1] stood at 115 mL/min/kg.
As for `C[C@H](NC(=O)[C@]1(NC(=O)c2cc(Cl)c(Cl)[nH]2)CO[C@H](c2ccccc2)C1)c1ncc2c(n1)CNC2`, the CL free in data set [1] turned out to be 217 mL/min/kg. Besides, the solubility thermodynamic at 48 h in data set [2] came to 719 µM (≈ 371 µg/mL).
As for `O=C(N[C@H](C(=O)NCc1cn2cccnc2n1)[C@@H]1C[C@H]1c1ccccc1)c1cc(Cl)c(Cl)[nH]1`, the CL free in data set [1] worked out at 217 mL/min/kg.
`C[C@H](NC(=O)[C@]1(NC(=O)c2cc(Cl)c(Cl)[nH]2)CO[C@H](c2ccccc2)C1)c1ncc(CO)cn1`: the CL free in data set [1] is < 28.3 mL/min/kg. Further, the solubility thermodynamic at 48 h in data set [2] came to 67 µM (≈ 33.8 µg/mL).
In the same order, the values of `C[C@H](NC(=O)[C@]1(NC(=O)c2cc(Cl)c(Cl)[nH]2)CO[C@H](c2ccccc2)C1)c1ncc2c(n1)CN(C1COC1)C2` are < 28.3 mL/min/kg and 280 µM (≈ 160 µg/mL).
In the same order, the values of `C[C@H](NC(=O)[C@]1(NC(=O)c2cc(Cl)c(Cl)[nH]2)CO[C@H](c2ccccc2)C1)c1ncc2c(n1)CN(CC(F)(F)F)C2` are 200 mL/min/kg and 5.3 µM (≈ 3.17 µg/mL).
In the case of `C[C@H](NC(=O)[C@H](CCc1ccccc1)NC(=O)c1cc(Cl)c(Cl)[nH]1)c1cn2nccnc2n1`, the CL free in data set [1] turned out to be 200 mL/min/kg.
Still for that read-out and setting: the result for `C[C@H](NC(=O)[C@H](CCc1ccccc1)NC(=O)c1cc(Cl)c(Cl)[nH]1)c1cn2ccoc2n1` reads 333 mL/min/kg; that for `C[C@H](NC(=O)[C@H](CCc1ccccc1)NC(=O)c1cc(Cl)c(Cl)[nH]1)c1nc2cnccc2s1`, 500 mL/min/kg.
Same read-out and setting: the result for `COC[C@H](NC(=O)[C@H](CCc1ccccc1)NC(=O)c1cc(Cl)c(Cl)[nH]1)c1cn2cccnc2n1` reads 107 mL/min/kg.
On the same count and under the same terms, in the case of `O=C(N[C@@H](CCc1ccccc1)C(=O)NC1(c2cn3cccnc3n2)CC1)c1cc(Cl)c(Cl)[nH]1` it was 58.3 mL/min/kg; in that of `O=C(N[C@@H](CCc1ccccc1)C(=O)NCCC1(O)CCOCC1)c1cc(Cl)c(Cl)[nH]1`, 160 mL/min/kg.
For `O=C(N[C@H](C(=O)NCc1cn2cccnc2n1)[C@H]1C[C@@H]1c1ccccc1)c1cc(Cl)c(Cl)[nH]1`, the CL free in data set [1] was found to be 533 mL/min/kg.
Still for that read-out and setting: in the case of `O=C(NC(CCc1ccccc1)C(=O)NCc1cn2cccnc2n1)c1cc(Cl)c(Cl)[nH]1` (racemic) it was 217 mL/min/kg.
Regarding `CN1Cc2cnc(CNC(=O)[C@H](CCc3ccccc3)NC(=O)c3cc(Cl)c(Cl)[nH]3)nc2C1`, the CL free in data set [1] is 140 mL/min/kg. For the same molecule, in data set [2], the solubility thermodynamic at 48 h turned out to be 1.8 µM (≈ 0.877 µg/mL).
Consider `O=C(N[C@@H](CCc1ccccc1)C(=O)NCc1cn2cccnc2n1)c1cc(Cl)c(Cl)[nH]1`, for which, in data set [1], the CL free was 233 mL/min/kg.
The same measure, in the same setting: the result for `C[C@H](NC(=O)[C@H](CCc1ccccc1)NC(=O)c1cc(Cl)c(Cl)[nH]1)c1cn2ccsc2n1` reads 1680 mL/min/kg.
As to `O=C(N[C@@H](CCc1ccccc1)C(=O)NCc1ccccc1)c1cc(Cl)c(Cl)[nH]1`, the CL free in data set [1] is 1530 mL/min/kg. Further, the solubility thermodynamic at 48 h in data set [2] was determined as 145 µM (≈ 62.4 µg/mL).
The matching figures for `C[C@H](NC(=O)[C@]1(NC(=O)c2cc(Cl)c(Cl)[nH]2)CO[C@H](c2ccccc2)C1)c1cnc2c(n1)COC2`: 183 mL/min/kg and 60 µM (≈ 31 µg/mL).
Regarding `CNC(=O)[C@H](CCc1ccccc1)NC(=O)c1cc(C)c[nH]1`, the CL free in data set [1] was determined as 35 mL/min/kg.
Same read-out and setting: in the case of `O=C(N[C@@H](CCc1ccccc1)C(=O)NCC1(O)CCOCC1)c1cc(Cl)c(Cl)[nH]1` it was 113 mL/min/kg.
As for `C[C@H](NC(=O)[C@]1(NC(=O)c2cc(Cl)c(Cl)[nH]2)CO[C@H](c2ccccc2)C1)c1ncc2c(n1)CN([C@H]1CCN(C)C1)C2`, the CL free in data set [1] was < 45 mL/min/kg. In addition, the solubility thermodynamic at 48 h in data set [2] was > 1000 µM.
In the same order, the values of `COCc1cnc([C@H](C)NC(=O)[C@]2(NC(=O)c3cc(Cl)c(Cl)[nH]3)CO[C@H](c3ccccc3)C2)nc1` are 78.3 mL/min/kg and 0.82 µM (≈ 0.425 µg/mL).
`CN1CCN(CCNC(=O)[C@H](CCc2ccccc2)NC(=O)c2cc(Cl)c(Cl)[nH]2)CC1`: the CL free in data set [1] stood at 217 mL/min/kg.
With `O=C(N[C@]1(C(=O)NCc2cn3cccnc3n2)CO[C@@H](c2ccccc2)C1)c1cc(Cl)c(Cl)[nH]1`, in data set [1], the CL free was < 35 mL/min/kg.
For `O=C(N[C@@H](CCc1ccccc1)C(=O)NCc1ncccn1)c1cc(Cl)c(Cl)[nH]1`, in data set [1], the CL free stood at 46.7 mL/min/kg. The solubility thermodynamic at 48 h in data set [2] was determined as 25 µM (≈ 10.8 µg/mL).
As for `C[C@H](NC(=O)[C@]1(NC(=O)c2cc(Cl)c(Cl)[nH]2)CO[C@H](c2ccccc2)C1)c1ncc2c(n1)CN(CC#N)C2`, the CL free in data set [1] came to 120 mL/min/kg. Also, the solubility thermodynamic at 48 h in data set [2] stood at 61 µM (≈ 33.8 µg/mL).
For the molecule `CC(C)(NC(=O)[C@H](CCc1ccccc1)NC(=O)c1cc(Cl)c(Cl)[nH]1)c1cn2cccnc2n1`, the CL free in data set [1] is 350 mL/min/kg.
For the molecule `C[C@H](NC(=O)[C@]1(NC(=O)c2cc(Cl)c(Cl)[nH]2)CO[C@H](c2cccc(C#N)c2)C1)c1ncc2c(n1)CN(C1CCN(C)CC1)C2`, in data set [1], the CL free was < 38.3 mL/min/kg. For the same molecule, the solubility thermodynamic at 48 h in data set [2] worked out at 654 µM (≈ 417 µg/mL).
The matching figures for `C[C@H](NC(=O)[C@]1(NC(=O)c2cc(Cl)c(Cl)[nH]2)CO[C@H](c2ccccc2)C1)c1ncc2c(n1)CCC2`: 333 mL/min/kg and 3.8 µM (≈ 1.95 µg/mL).
`O=C(NC(CCc1ccccc1)C(=O)NCc1cccnc1N1CCOCC1)c1cc(Cl)c(Cl)[nH]1` (racemic): the CL free in data set [1] turned out to be 817 mL/min/kg.
On the same count and under the same terms, in the case of `CNC(=O)[C@@H]1C[C@@H](c2ccccc2)CN1C(=O)c1cc(Cl)c(Cl)[nH]1` it was 85 mL/min/kg; in that of `CNC(=O)[C@H](CCc1ccccc1)NC(=O)c1cc(Cl)c(Cl)[nH]1`, < 40 mL/min/kg.
As to `O=C(N[C@@H](CCc1ccccc1)C(=O)NCc1ncc(CO)cn1)c1cc(Cl)c(Cl)[nH]1`, the CL free in data set [1] was determined as 71.7 mL/min/kg. The solubility thermodynamic at 48 h in data set [2] was found to be 73 µM (≈ 33.8 µg/mL).
For `C[C@@H](NC(=O)[C@H](CCc1ccccc1)NC(=O)c1cc(Cl)c(Cl)[nH]1)c1cn2cccnc2n1`, the CL free in data set [1] turned out to be 267 mL/min/kg.
The same measure, in the same setting: in the case of `C[C@H](NC(=O)[C@]1(NC(=O)c2cc(Cl)c(Cl)[nH]2)CO[C@H](c2ccccc2)C1)c1ncc2c(n1)CN(CCC(F)(F)F)C2` it was 183 mL/min/kg.
For the molecule `C[C@H](NC(=O)[C@]1(NC(=O)c2cc(Cl)c(Cl)[nH]2)CO[C@H](c2ccccc2)C1)c1ncc2c(n1)CN([C@@H]1CCN(C)C1)C2`, the CL free in data set [1] was 400 mL/min/kg. Also, in data set [2], the solubility thermodynamic at 48 h was > 1000 µM.
For the molecule `O=C(NC(CCc1ccccc1)C(=O)NCc1cnc(N2CCOCC2)nc1)c1cc(Cl)c(Cl)[nH]1` (racemic), in data set [1], the CL free was found to be 1030 mL/min/kg.
For the molecule `C[C@H](NC(=O)[C@H](CCc1ccccc1)NC(=O)c1cc(Cl)c(Cl)[nH]1)c1cn2cccnc2n1`, the CL free in data set [1] stood at 200 mL/min/kg.
Consider `O=C(N[C@H](C(=O)NCc1cn2cccnc2n1)[C@@H]1CCc2ccccc2C1)c1cc(Cl)c(Cl)[nH]1`, for which, in data set [1], the CL free was 1050 mL/min/kg.
For the molecule `O=C(CN1C(=O)[C@@H](NC(=O)[C@@H](NC(=O)c2cc(Cl)c(Cl)[nH]2)C2CCCCC2)CSc2ccccc21)Nc1ccccc1`, the CL free in data set [1] is 35000 mL/min/kg.
Consider `O=C(N[C@@H](CCc1ccccc1)C(=O)NC[C@@H]1COCCO1)c1cc(Cl)c(Cl)[nH]1`, for which the CL free in data set [1] was determined as 60 mL/min/kg.
In the case of `O=C(NC(CCc1ccccc1)C(=O)NCc1cn2ccsc2n1)c1cc(Cl)c(Cl)[nH]1` (racemic), the CL free in data set [1] stood at 1120 mL/min/kg.
Still for that read-out and setting: the result for `O=C(N[C@@]1(C(=O)NCc2cn3cccnc3n2)CO[C@H](c2ccccc2)C1)c1cc(Cl)c(Cl)[nH]1` reads 63.3 mL/min/kg.
`C[C@H](NC(=O)[C@]1(NC(=O)c2cc(Cl)c(Cl)[nH]2)CO[C@H](c2ccccc2)C1)c1ncc2c(n1)CN(C)C2`: in data set [1], the CL free turned out to be 88.3 mL/min/kg. Also, the solubility thermodynamic at 48 h in data set [2] turned out to be 190 µM (≈ 101 µg/mL).
Turning to `O=C(N[C@H](C(=O)NCc1cn2cccnc2n1)[C@H]1CCc2ccccc2C1)c1cc(Cl)c(Cl)[nH]1`, the CL free in data set [1] was found to be 667 mL/min/kg.
With `O=C(N[C@@H](CCc1ccccc1)C(=O)NCc1ncc2c(n1)COC2)c1cc(Cl)c(Cl)[nH]1`, in data set [1], the CL free worked out at 183 mL/min/kg. Besides, the solubility thermodynamic at 48 h in data set [2] is 8 µM (≈ 3.79 µg/mL).
For the molecule `COCc1cnc(CNC(=O)[C@H](CCc2ccccc2)NC(=O)c2cc(Cl)c(Cl)[nH]2)nc1`, the CL free in data set [1] was determined as 167 mL/min/kg. Further, in data set [2], the solubility thermodynamic at 48 h turned out to be 5.7 µM (≈ 2.72 µg/mL).
Regarding `CNC(=O)[C@H](CC(C)(C)C)NC(=O)c1cc(Cl)c(Cl)[nH]1`, in data set [1], the CL free was < 33 mL/min/kg.
The same measure, in the same setting: the result for `CNC(=O)[C@@H](NC(=O)c1cc(Cl)c(Cl)[nH]1)C1Cc2ccccc2C1` reads 145 mL/min/kg; that for `O=C(N[C@@H](CCc1ccccc1)C(=O)N[C@@H](CO)c1cn2cccnc2n1)c1cc(Cl)c(Cl)[nH]1`, 938 mL/min/kg.
Still for that read-out and setting: in the case of `CC(=O)N1CCO[C@@H](CNC(=O)[C@H](CCc2ccccc2)NC(=O)c2cc(Cl)c(Cl)[nH]2)C1` it was 70 mL/min/kg; in that of `CC(=O)N1CCO[C@H](CNC(=O)[C@H](CCc2ccccc2)NC(=O)c2cc(Cl)c(Cl)[nH]2)C1`, 56.7 mL/min/kg.
As for `O=C(N[C@]1(C(=O)NCc2cn3cccnc3n2)CO[C@H](c2ccccc2)C1)c1cc(Cl)c(Cl)[nH]1`, the CL free in data set [1] was 43.3 mL/min/kg.
Turning to `CC[C@H](NC(=O)[C@H](CCc1ccccc1)NC(=O)c1cc(Cl)c(Cl)[nH]1)c1cn2cccnc2n1`, the CL free in data set [1] amounted to 125 mL/min/kg.
Still for that read-out and setting: in the case of `O=C(N[C@@H](CCc1ccccc1)C(=O)NC[C@H]1COCCO1)c1cc(Cl)c(Cl)[nH]1` it was 98.3 mL/min/kg.
As for `CNC(=O)[C@@H](NC(=O)c1cc(Cl)c(Cl)[nH]1)C1CCCCC1`, in data set [1], the CL free was 90 mL/min/kg.
The same measure, in the same setting: the result for `CN1C(=O)[C@@H](NC(=O)[C@@H](NC(=O)c2cc(Cl)c(Cl)[nH]2)C2CCCCC2)COc2ccccc21` reads 6000 mL/min/kg; that for `O=C(N[C@@H](CCc1ccccc1)C(=O)NCC1(CO)CCOCC1)c1cc(Cl)c(Cl)[nH]1`, 135 mL/min/kg; that for `O=C(N[C@H](C(=O)NCc1cn2cccnc2n1)C1Cc2ccccc2C1)c1cc(Cl)c(Cl)[nH]1`, 120 mL/min/kg.
